Data: patent publication US11090304B2 (Amgen Inc., priority 2018, dated 2021)

What was measured:
[1] = biological target: GDP-bound KRAS protein (aa 1-169), containing both G12C and C118A amino acid substitutions (Homo sapiens, UniProt P01116, C118A/G12C); experiment: Coupled nucleotide exchange assay (SOS-mediated, AlphaScreen); type: biochemical; conditions: 5 min compound pre-incubation
[2] = test system: Phosphorylation of ERK1/2 in MIA PaCa-2 cells; experiment: Phospho-ERK1/2 MSD assay in MIA PaCa-2 cells; type: cell-based; conditions: Homo sapiens, MIA PaCa-2, 2 h, read-out: p-ERK IC50 (2 h; MIA PaCa-2), 2 h compound treatment
In short: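 In the procedure, cells were plated a day ahead at 25,000 per well. Next, a dilution series of compound in growth medium was added for 2 or 4 h. EGF (10 ng/mL) stimulation for 10 min preceded washing and RIPA lysis. Lysate phospho-ERK1/2 was read by MSD, with IC50 derived by 4-parameter logistic analysis.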

Chain of GDP-bound KRAS protein (aa 1-169), containing both G12C and C118A amino acid substitutions (P01116 1-169 isoform P01116-2 G12C/C118A): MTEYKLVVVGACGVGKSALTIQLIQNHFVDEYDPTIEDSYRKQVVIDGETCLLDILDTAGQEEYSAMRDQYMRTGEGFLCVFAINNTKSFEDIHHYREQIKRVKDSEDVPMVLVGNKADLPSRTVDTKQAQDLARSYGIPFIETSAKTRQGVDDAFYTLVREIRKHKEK

SMILES	Coupled exchange IC50 (5 min) [1]	IC50 [2]
C=CC(=O)N1CCN(c2nc(=O)n(-c3ncccc3CC(C)C)c3nc(-c4c(O)cccc4F)c(Cl)cc23)[C@@H](C)C1 [Example 54-101, 6-chloro-7-(2-fluoro-6-hydroxyphenyl)-4-((2S)-2-methyl-4-(2-propenoyl)-1-piperazinyl)-1-(3-(2-methylpropyl)-2-pyridinyl) pyrido[2,3-d]pyrimidin-2(1H)-one]	0.162 | nda μM	157 nM
C=CC(=O)N1CCN(c2nc(=O)n(-c3ncccc3CC(C)C)c3nc(-c4ccccc4F)c(Cl)cc23)[C@@H](C)C1 [Example 54-102, 6-chloro-7-(2-fluorophenyl)-4-((2S)-2-methyl-4-(2-propenoyl)-1-piperazinyl)-1-(3-(2-methylpropyl)-2-pyridinyl) pyrido[2,3-d]pyrimidin-2(1H)-one]	0.161 | nda μM	176 nM
C=CC(=O)N1CCN(c2nc(=O)n(-c3c(C(C)C)cccc3N(C)C)c3nc(-c4ccccc4F)c(Cl)cc23)[C@@H](C)C1 [Example 54-104, 6-chloro-1-(2-(dimethyl-amino)-6-(2-propanyl)phenyl)-7-(2-fluorophenyl)-4-((2S)-2-methyl-4-(2-propenoyl)-1-piperazinyl) pyrido[2,3-d]pyrimidin-2(1H)-one]	0.09 | nda μM	70 nM
C=CC(=O)N1CCN(c2nc(=O)n(-c3c(C)cc(OC)nc3C(C)C)c3nc(-c4ccccc4F)c(Cl)cc23)[C@@H](C)C1 [Example 54-105, 6-chloro-7-(2-fluorophenyl)-1-(6-methoxy-4-methyl-2-(2-propanyl)-3-pyridinyl)-4-((2S)-2-methyl-4-(2-propenoyl)-1-piperazinyl) pyrido[2,3-d]pyrimidin-2(1H)-one]	0.07 | nda μM	89 nM
C=CC(=O)N1CCN(c2nc(=O)n(-c3c(OC)ncnc3C(C)C)c3nc(-c4ccccc4F)c(Cl)cc23)[C@@H](C)C1 [Example 54-107, 6-chloro-7-(2-fluorophenyl)-1-(4-methoxy-6-(2-propanyl)-5-pyrimidinyl)-4-((2S)-2-methyl-4-(2-propenoyl)-1-piperazinyl) pyrido[2,3-d]pyrimidin-2(1H)-one]	0.159 | nda μM	99 nM
C=CC(=O)N1CCN(c2nc(=O)n(-c3c(C(C)C)nc[nH]c3=O)c3nc(-c4ccccc4F)c(Cl)cc23)[C@@H](C)C1 [Example 54-108, 6-chloro-7-(2-fluorophenyl)-4-((2S)-2-methyl-4-(2-propenoyl)-1-piperazinyl)-1-(6-oxo-4-(2-propanyl)-1,6-dihydro-5-pyrimidinyl) pyrido[2,3-d]pyrimidin-2(1H)-one]	0.434 | nda μM	3770 nM
C=CC(=O)N1CCN(c2nc(=O)n(-c3cncnc3C(C)(C)C)c3nc(-c4ccccc4F)c(Cl)cc23)[C@@H](C)C1 [Example 54-110, 6-chloro-7-(2-fluorophenyl)-1-(4-(2-methyl-2-propanyl)-5-pyrimidinyl)-4-((2S)-2-methyl-4-(2-propenoyl)-1-piperazinyl) pyrido[2,3-d]pyrimidin-2(1H)-one]	0.404 | nda μM	408 nM
C=CC(=O)N1CCN(c2nc(=O)n(-c3n[nH]cc3C(C)C)c3nc(-c4ccccc4F)c(Cl)cc23)[C@@H](C)C1 [Example 54-111, 6-chloro-7-(2-fluorophenyl)-4-((2S)-2-methyl-4-(2-propenoyl)-1-piperazinyl)-1-(4-(2-propanyl)-1H-pyrazol-3-yl)pyrido[2,3-d]pyrimidin-2(1H)-one]	0.417 | nda μM	791 nM
C=CC(=O)N1CCN(c2nc(=O)n(-c3cccnc3C(C)(C)C)c3nc(-c4ccccc4F)c(Cl)cc23)[C@@H](C)C1 [Example 54-112, 6-chloro-7-(2-fluorophenyl)-1-(2-(2-methyl-2-propanyl)-3-pyridinyl)-4-((2S)-2-methyl-4-(2-propenoyl)-1-piperazinyl) pyrido[2,3-d]pyrimidin-2(1H)-one]	0.084 | nda μM	222 nM

The next lines start with the values.

Coupled exchange IC50 (5 min) [1]	IC50 [2]	SMILES
0.124 | nda μM	226 nM	C=CC(=O)N1CCN(c2nc(=O)n(-c3c(C)noc3C(C)C)c3nc(-c4c(O)cccc4F)c(Cl)cc23)[C@@H](C)C1 [Example 55-1, 6-Chloro-7-(2-fluoro-6-hydroxyphenyl)-1-(3-methyl-5-(2-propanyl)-1,2-oxazol-4-yl)-4-((2S)-2-methyl-4-(2-propenoyl)-1-piperazinyl)pyrido[2,3-d]pyrimidin-2(1H)-one]
0.966 | nda μM	918 nM	C=CC(=O)N1CCN(c2nc(=O)n(-c3c(OC)ncnc3OC)c3nc(-c4c(O)cccc4F)c(Cl)cc23)[C@@H](C)C1 [Example 55-3, 6-chloro-1-(4,6-dimethoxy-5-pyrimidinyl)-7-(2-fluoro-6-hydroxyphenyl)-4-((2S)-methyl-4-(2-propenoyl)-1-piperazinyl)pyrido[2,3-d]pyrimidin-2(1H)-one]
0.057 | nda μM	80 nM	C=CC(=O)N1CCN(c2nc(=O)n(-c3c(C)nc(C)nc3C(C)C)c3nc(-c4c(O)cccc4F)c(Cl)cc23)[C@@H](C)C1 [Example 55-4, 6-chloro-1-(2,4-dimethyl-6-(2-propanyl)-5-pyrimidinyl)-7-(2-fluoro-6-hydroxyphenyl)-4-((2S)-2-methyl-4-(2-propenoyl)-1-piperazinyl)pyrido[2,3-d]pyrimidin-2(1H)-one]
0.045 | nda μM	31 nM	C=CC(=O)N1CCN(c2nc(=O)n(-c3c(C(C)C)nc(C)nc3C(C)C)c3nc(-c4ccccc4F)c(Cl)cc23)[C@@H](C)C1 [Example 55-5, 6-chloro-7-(2-fluorophenyl)-1-(2-methyl-4,6-di(2-propanyl)-5-pyrimidinyl)-4-((2S)-2-methyl-4-(2-propenoyl)-1-piperazinyl)pyrido[2,3-d]pyrimidin-2(1H)-one]
0.318 | nda μM	317 nM	C=CC(=O)N1CCN(c2nc(=O)n(-c3ccccc3CC(F)(F)F)c3nc(-c4c(O)cccc4F)c(Cl)cc23)[C@@H](C)C1 [Example 55-6, 6-chloro-7-(2-fluoro-6-hydroxyphenyl)-4-((2S)-2-methyl-4-(2-propenoyl)-1-piperazinyl)-1-(2-(2,2,2-trifluoroethyl)phenyl)pyrido[2,3-d]pyrimidin-2(1H)-one]
0.24 | nda μM	214 nM	C=CC(=O)N1CCN(c2nc(=O)n(-c3c(C)cccc3CC)c3nc(-c4ccccc4F)c(Cl)cc23)[C@@H](C)C1 [Example 55-9, 6-chloro-1-(2-ethyl-6-methylphenyl)-7-(2-fluorophenyl)-4-((2S)-2-methyl-4-(2-propenoyl)-1-piperazinyl)pyrido[2,3-d]pyrimidin-2(1H)-one]
0.123 | nda μM	156 nM	C=CC(=O)N1CCN(c2nc(=O)n(-c3c(C)ccnc3CC)c3nc(-c4c(O)cccc4F)c(Cl)cc23)[C@@H](C)C1 [Example 55-10, 6-chloro-1-(2-ethyl-4-methyl-3-pyridinyl)-7-(2-fluoro-6-hydroxyphenyl)-4-((2S)-2-methyl-4-(2-propenoyl)-1-piperazinyl)pyrido[2,3-d]pyrimidin-2(1H)-one]
0.309 | nda μM	235 nM	C=CC(=O)N1CCN(c2nc(=O)n(-c3c(C)noc3C(C)C)c3nc(-c4ccccc4F)c(Cl)cc23)[C@@H](C)C1 [Example 55-11, 6-chloro-7-(2-fluoropheny)-1-(3-methyl-5-(2-propanyl)-1,2-oxazol-4-yl)-4-((2S)-2-methyl-4-(2-propenoyl)-1-piperazinyl)pyrido[2,3-d]pyrimidin-2(1H)-one]
0.583 | nda μM	775 nM	C=CC(=O)N1CCN(c2nc(=O)n(-c3c(C)noc3C(C)C)c3nc(-c4ccc(F)cc4F)c(Cl)cc23)[C@@H](C)C1 [Example 55-12, 6-chloro-7-(2,4-difuorophenyl)-1-(3-methyl-5-(2-propanyl)-1,2-oxazol-4-yl)-4-((2S)-2-methyl-4-(2-propenoyl)-1-piperazinyl)pyrido[2,3-d]pyrimidin-2(1H)-one]
0.191 | nda μM	179 nM	C=CC(=O)N1CCN(c2nc(=O)n(-c3c(C)ncnc3C(C)C)c3nc(-c4ccccc4F)c(Cl)cc23)[C@@H](C)C1 [Example 55-13, 6-chloro-7-(2-fluorophenyl)-1-(4-methyl-6-(2-propanyl)-5-pyrimidinyl)-4-((2S)-2-methyl-4-(2-propenoyl)-1-piperazinyl)pyrido[2,3-d]pyrimidin-2(1H)-one]
0.055 | nda μM	92 nM	C=CC(=O)N1CCN(c2nc(=O)n(-c3c(C)cccc3C3CC3)c3nc(-c4c(O)cccc4F)c(Cl)cc23)[C@@H](C)C1 [Example 55-15, 6-chloro-1-(2-cyclopropyl-6-methylphenyl)-7-(2-fluoro-6-hydroxyphenyl)-4-((2S)-2-methyl-4-(2-propenoyl)-1-piperazinyl)pyrido[2,3-d]pyrimidin-2(1H)-one]
0.154 | nda μM	199 nM	C=CC(=O)N1CCN(c2nc(=O)n(-c3c(C)cc(N(C)C)cc3C(C)C)c3nc(-c4ccccc4F)c(Cl)cc23)[C@@H](C)C1 [Example 55-16, 6-chloro-1-(4-(dimethylamino)-2-methyl-6-(2-propanyl)phenyl)-7-(2-fluorophenyl)-4-((2S)-2-methyl-4-(2-propenoyl)-1-piperazinyl)pyrido[2,3-d]pyrimidin-2(1H)-one]
